Experimental data reported in ChEMBL document CHEMBL3400054, “Polybrominated diphenyl ethers with potent and broad spectrum antimicrobial activity from the marine sponge Dysidea” (2015).
≈ marks a conversion by molar mass, not a printed value.

Legend:
Format in all cases: functional
Klebsiella pneumoniae [1] = test: Antimicrobial activity against Klebsiella pneumoniae ATCC 13883 incubated at 37 degC for 24 hrs by broth macrodilution method; settings: ATCC 13883, 24 h
Streptococcus pneumoniae = test: Antimicrobial activity against Streptococcus pneumoniae incubated at 37 degC for 24 hrs by broth macrodilution method
Campylobacter jejuni = test: Antimicrobial activity against Campylobacter jejuni ATCC 33291 incubated at 37 degC for 24 hrs by broth macrodilution method; settings: ATCC 33291, 24 h
Clostridioides difficile = test: Antimicrobial activity against Clostridium difficile ATCC 9689 incubated at 37 degC for 24 hrs by broth macrodilution method; settings: ATCC 9689, 24 h
Salmonella sp. = test: Antimicrobial activity against Salmonella sp. incubated at 37 degC for 24 hrs by broth macrodilution method
Staphylococcus aureus [2] = test: Antimicrobial activity against methicillin-resistant Staphylococcus aureus incubated at 37 degC for 24 hrs by broth macrodilution method
Listeria monocytogenes = test: Antimicrobial activity against Listeria monocytogenes incubated at 37 degC for 24 hrs by broth macrodilution method
Bacillus cereus = test: Antimicrobial activity against Bacillus cereus incubated at 37 degC for 24 hrs by broth macrodilution method
Escherichia coli = test: Antimicrobial activity against Escherichia coli O157:H7 incubated at 37 degC for 24 hrs by broth macrodilution method; settings: O157:H7, 24 h
Staphylococcus aureus [3] = test: Antimicrobial activity against methicillin-sensitive Staphylococcus aureus incubated at 37 degC for 24 hrs by broth macrodilution method
Pseudomonas aeruginosa = test: Antimicrobial activity against Pseudomonas aeruginosa incubated at 37 degC for 24 hrs by broth macrodilution method
Pseudomonas = test: Antimicrobial activity against Pseudomonas incubated at 37 degC for 24 hrs by broth macrodilution method
Neisseria gonorrhoeae = test: Antimicrobial activity against Neisseria gonorrhoeae incubated at 37 degC for 24 hrs by broth macrodilution method
Klebsiella pneumoniae [4] = test: Antimicrobial activity against Klebsiella pneumoniae

SMILES | MIC (Klebsiella pneumoniae [1]) [mg/L] | MIC (Streptococcus pneumoniae) [mg/L] | MIC (Campylobacter jejuni) [mg/L] | MIC (Clostridioides difficile) [mg/L] | MIC (Salmonella sp.) [mg/L] | MIC (Staphylococcus aureus [2]) [mg/L] | MIC (Listeria monocytogenes) [mg/L] | MIC (Bacillus cereus) [mg/L] | MIC (Escherichia coli) [mg/L] | MIC (Staphylococcus aureus [3]) [mg/L] | MIC (Pseudomonas aeruginosa) [mg/L] | MIC (Pseudomonas) [mg/L] | MIC (Neisseria gonorrhoeae) [mg/L] | MIC (Klebsiella pneumoniae [4]) [mg/L]
Oc1c(Br)cc(Br)cc1Oc1ccc(Br)cc1Br | 5 (≈ 9.96 µM) | 5 (≈ 9.96 µM) | 5 (≈ 9.96 µM) | 10 (≈ 19.9 µM) | 10 (≈ 19.9 µM) | 1 (≈ 1.99 µM) | 1 (≈ 1.99 µM) | 5 (≈ 9.96 µM) | 10 (≈ 19.9 µM) |  |  |  |  | 
Oc1cc(Br)cc(Br)c1Oc1ccc(Br)cc1Br | 0.1 (≈ 0.199 µM) |  | 5 (≈ 9.96 µM) | 4 (≈ 7.97 µM) | 1 (≈ 1.99 µM) | 0.1 (≈ 0.199 µM) | 2 (≈ 3.99 µM) | 0.1 (≈ 0.199 µM) | 8 (≈ 15.9 µM) | 1 (≈ 1.99 µM) | 16 (≈ 31.9 µM) | 4 (≈ 7.97 µM) | 2 (≈ 3.99 µM) | 
Oc1cc(Br)c(Br)c(Br)c1Oc1ccc(Br)cc1Br |  |  | 5 (≈ 8.61 µM) | 10 (≈ 17.2 µM) | 10 (≈ 17.2 µM) | 0.1 (≈ 0.172 µM) | 0.1 (≈ 0.172 µM) |  |  |  |  |  |  | 
CO[C@@]1(NC(=O)Cc2cccs2)C(=O)N2C(C(=O)O)=C(COC(N)=O)CS[C@@H]21 [CEFOXITIN] | 0.25 (≈ 0.585 µM) |  |  |  |  |  |  |  |  |  |  |  |  | 2 (≈ 4.68 µM)
O=C(O)c1cn(C2CC2)c2cc(N3CCNCC3)c(F)cc2c1=O [CIPROFLOXACIN] | 0.125 (≈ 0.377 µM) |  |  |  |  |  |  |  |  |  |  |  |  | 0.5 (≈ 1.51 µM)
C[C@@H](O)[C@H]1C(=O)N2C(C(=O)O)=C(SCCNC=N)C[C@H]12 [IMIPENEM ANHYDROUS] | 0.25 (≈ 0.835 µM) |  |  |  |  |  |  |  |  |  |  |  |  | 0.25 (≈ 0.835 µM)
